Results: US20230183292A1, “IMMUNOMODULATORS” (priority 2020, published 2023)
Starred links: 1 amine or outer side, 2 acyl side, 3 side chain; linkers in the order of their positions; H or OH if unused. Positions of bridges follow the written chain, without caps; N, C: chain ends. Non-standard residues stand in square brackets, D forms with d. Residues, ends and D or L forms follow the SMILES beside them. X6 = C[C@H](CCC(=O)O)[C@H]1CC[C@H]2[C@@H]3C(=O)C[C@@H]4CC(NCC[C@H](N[*:1])C(=O)[*:2])CC[C@]4(C)[C@H]3CC(=O)[C@]12C; X3 = C[C@H](CCC(=O)O)[C@H]1CC[C@H]2[C@@H]3C(=O)C[C@@H]4CC(NC[C@H](N[*:1])C(=O)[*:2])CC[C@]4(C)[C@H]3CC(=O)[C@]12C; X9 = C[C@H](CCC(=O)O)[C@H]1CC[C@H]2[C@@H]3C(O)C[C@@H]4CC(NCC[C@H](N[*:1])C(=O)[*:2])CC[C@]4(C)[C@H]3CC(=O)[C@]12C; X8 = C[C@H](CCC(=O)O)[C@H]1CC[C@H]2[C@@H]3C(O)C[C@@H]4CC(NC[C@H](N[*:1])C(=O)[*:2])CC[C@]4(C)[C@H]3CC(=O)[C@]12C; X26 = C[C@H](CCC(=O)O)[C@H]1CC[C@H]2[C@@H]3C(=O)C[C@@H]4CC(NCC[C@H](N[*:1])C(=O)[*:2])CC[C@]4(C)[C@H]3CC[C@]12C; X25 = C[C@H](CCC(=O)O)[C@H]1CC[C@H]2[C@@H]3C(=O)C[C@@H]4CC(NC[C@H](N[*:1])C(=O)[*:2])CC[C@]4(C)[C@H]3CC[C@]12C; Trp(1-CH2COOH) = N[C@@H](Cc1cn(CC(=O)O)c2ccccc12)C(=O)O; X28 = O=C(C[C@@H](Cc1ccc(O)cc1)C(=O)[*:1])C[*:2]; Hyp = O=C(O)[C@@H]1C[C@@H](O)CN1; NMeNle = CCCC[C@H](NC)C(=O)O; NMeA = CN[C@@H](C)C(=O)O; Dab = NCC[C@H](N)C(=O)O

Target: T1, PD-1/PD-L1 (Homo sapiens, UniProt Q9NZQ7)
T1 construct: TVMV protease site (C); made in house; host or cells: HEK293T cells
T1 sequence (Q9NZQ7 18-239): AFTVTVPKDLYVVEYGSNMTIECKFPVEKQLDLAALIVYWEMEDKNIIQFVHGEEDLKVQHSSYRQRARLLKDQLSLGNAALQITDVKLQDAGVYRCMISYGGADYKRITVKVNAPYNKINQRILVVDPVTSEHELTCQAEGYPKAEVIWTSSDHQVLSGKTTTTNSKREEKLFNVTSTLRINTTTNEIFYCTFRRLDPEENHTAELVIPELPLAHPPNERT
Test: PD-1/PD-L1 Homogenous Time-Resolved Fluorescence (HTRF) binding assay
Details: PD-L1-His 10 nM, PD-1-Ig 20 nM; read-out: HTRF IC50
Outline: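 Inhibitors pre-incubated 15 min with PD-L1-His (10 nM final) in dPBS, 0.1% BSA, 0.05% Tween-20, then 15 min with PD-1-Ig (20 nM final). Eu-cryptate anti-Ig (1 nM) and APC anti-His (20 nM) added, 30 min equilibration; HTRF 665/620 nm ratio. Human ECD proteins from HEK293T.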

Row | SMILES | IC50 [µM]
1 | CCCC[C@H]1C(=O)N(C)[C@@H](CCCC)C(=O)N[C@@H](CC(C)C)C(=O)N[C@H](C(=O)NCC(N)=O)CSCC(=O)N[C@@H](Cc2ccc(O)cc2)C(=O)N(C)[C@@H](C)C(=O)N[C@@H](CC(N)=O)C(=O)N2CCC[C@H]2C(=O)N[C@@H](CNC2CC[C@@]3(C)[C@@H](C2)CC(O)[C@@H]2[C@@H]3CC(=O)[C@]3(C)[C@@H]([C@H](C)CCC(=O)O)CC[C@@H]23)C(=O)N[C@@H](CC(C)C)C(=O)N2C[C@H](O)C[C@H]2C(=O)N[C@@H](Cc2c[nH]c3ccccc23)C(=O)N[C@@H](CCNC2CC[C@@]3(C)[C@@H](C2)CC(O)[C@@H]2[C@@H]3CC(=O)[C@]3(C)[C@@H]([C@H](C)CCC(=O)O)CC[C@@H]23)C(=O)N[C@@H](Cc2cn(CC(=O)O)c3ccccc23)C(=O)N1C (some centres unmarked) [Example 3001] ({CH2CO}-Y[NMeA]NP[X8]L[Hyp]W[X9][Trp(1-CH2COOH)][NMeNle][NMeNle]LCG-NH2; thioether N-14) | 0.02
2 | CCCC[C@H]1C(=O)N(C)[C@@H](CCCC)C(=O)N[C@@H](CC(C)C)C(=O)N[C@H](C(=O)NCC(N)=O)CSCC(=O)N[C@@H](Cc2ccc(O)cc2)C(=O)N(C)[C@@H](C)C(=O)N[C@@H](CC(N)=O)C(=O)N2CCC[C@H]2C(=O)N[C@@H](CNC2CC[C@@]3(C)[C@H](CC(=O)[C@@H]4[C@@H]3CC(=O)[C@]3(C)[C@@H]([C@H](C)CCC(=O)O)CC[C@@H]43)C2)C(=O)N[C@@H](CC(C)C)C(=O)N2C[C@H](O)C[C@H]2C(=O)N[C@@H](Cc2c[nH]c3ccccc23)C(=O)N[C@@H](CCNC2CC[C@@]3(C)[C@H](CC(=O)[C@@H]4[C@@H]3CC(=O)[C@]3(C)[C@@H]([C@H](C)CCC(=O)O)CC[C@@H]43)C2)C(=O)N[C@@H](Cc2cn(CC(=O)O)c3ccccc23)C(=O)N1C (some centres unmarked) [Example 3003] ({CH2CO}-Y[NMeA]NP[X3]L[Hyp]W[X6][Trp(1-CH2COOH)][NMeNle][NMeNle]LCG-NH2; thioether N-14) | 0.017
3 | CCCC[C@H]1C(=O)N(C)[C@@H](CCCC)C(=O)N[C@@H](CC(C)C)C(=O)N[C@H](C(=O)NCC(N)=O)CSCC(=O)C[C@@H](Cc2ccc(O)cc2)C(=O)N(C)[C@@H](C)C(=O)N[C@@H](CC(N)=O)C(=O)N2CCC[C@H]2C(=O)N[C@@H](CNC2CC[C@@]3(C)[C@H](CC(=O)[C@@H]4[C@@H]3CC[C@]3(C)[C@@H]([C@H](C)CCC(=O)O)CC[C@@H]43)C2)C(=O)N[C@@H](CC(C)C)C(=O)N2C[C@H](O)C[C@H]2C(=O)N[C@@H](Cc2c[nH]c3ccccc23)C(=O)N[C@@H](CCN)C(=O)N[C@@H](Cc2cn(CC(=O)O)c3ccccc23)C(=O)N1C (some centres unmarked) [Example 3004] ([NMeA]NP[X25]L[Hyp]W[Dab][Trp(1-CH2COOH)][NMeNle][NMeNle]LCG-NH2; linker N-13 via X28) | 0.041
4 | CCCC[C@H]1C(=O)N(C)[C@@H](CCCC)C(=O)N[C@@H](CC(C)C)C(=O)N[C@H](C(=O)NCC(N)=O)CSCC(=O)N[C@@H](Cc2ccc(O)cc2)C(=O)N(C)[C@@H](C)C(=O)N[C@@H](CC(N)=O)C(=O)N2CCC[C@H]2C(=O)N[C@@H](CNC2CC[C@@]3(C)[C@H](CC(=O)[C@@H]4[C@@H]3CC(=O)[C@]3(C)[C@@H]([C@H](C)CCC(=O)O)CC[C@@H]43)C2)C(=O)N[C@@H](CC(C)C)C(=O)N2C[C@H](O)C[C@H]2C(=O)N[C@@H](Cc2c[nH]c3ccccc23)C(=O)N[C@@H](CCN)C(=O)N[C@@H](Cc2cn(CC(=O)O)c3ccccc23)C(=O)N1C (some centres unmarked) [Example 3005] ({CH2CO}-Y[NMeA]NP[X3]L[Hyp]W[Dab][Trp(1-CH2COOH)][NMeNle][NMeNle]LCG-NH2; thioether N-14) | 0.013
5 | CCCC[C@H]1C(=O)N(C)[C@@H](CCCC)C(=O)N[C@@H](CC(C)C)C(=O)N[C@H](C(=O)NCC(N)=O)CSCC(=O)N[C@@H](Cc2ccc(O)cc2)C(=O)N(C)[C@@H](C)C(=O)N[C@@H](CC(N)=O)C(=O)N2CCC[C@H]2C(=O)N[C@@H](CNC2CC[C@@]3(C)[C@H](CC(=O)[C@@H]4[C@@H]3CC[C@]3(C)[C@@H]([C@H](C)CCC(=O)O)CC[C@@H]43)C2)C(=O)N[C@@H](CC(C)C)C(=O)N2C[C@H](O)C[C@H]2C(=O)N[C@@H](Cc2c[nH]c3ccccc23)C(=O)N[C@@H](CCNC2CC[C@@]3(C)[C@H](CC(=O)[C@@H]4[C@@H]3CC[C@]3(C)[C@@H]([C@H](C)CCC(=O)O)CC[C@@H]43)C2)C(=O)N[C@@H](Cc2cn(CC(=O)O)c3ccccc23)C(=O)N1C (some centres unmarked) [Example 3006] ({CH2CO}-Y[NMeA]NP[X25]L[Hyp]W[X26][Trp(1-CH2COOH)][NMeNle][NMeNle]LCG-NH2; thioether N-14) | 0.011
